Like-named read-outs stand apart in the source and are kept apart here.
Tested on: Tg.rasH2 mice
Details: for Incidence of lung adenoma, multiple / Incidence of lung adenoma, single / Incidence of lung carcinoma / Incidence of lung tumors, combined / Incidence of thymus, thymoma / Incidence of urethra papilloma / Incidence of Harderian gland carcinoma / Incidence of Harderian gland adenoma / Incidence of hemangiosarcoma, combined / Incidence of hemangiosarcoma, multicentric (includes abdominal skin and thoracic wall) / Incidence of hemangiosarcoma, spleen / Incidence of hemangiosarcoma, uterus / Incidence of hemangiosarcoma, vagina / Survival rate / Incidence of hemangiosarcoma, kidney / Incidence of hemangiosarcoma, spinal cord, lumbar: 26 weeks
Method: The vehicle was 0.5% carboxymethylcellulose (CMC) with 0.1% Tween 80 (v/v). The vehicle and pretomanid formulations were administered to mice by oral gavage once daily at a dosing volume of 10 mL/kg. Individual dose volumes were calculated based on each animal’s most recently recorded body weight. The dose formulations were magnetically stirred at room temperature for at least 30 minutes prior to and during dosing. The positive control was urethane in 0.9% sodium chloride and was administered via intraperitoneal injection for a total of three times. The positive control formulation was allowed to stand at room temperature for at least 30 minutes and inverted several times prior to dose administration. Aliquots (0.5 to 1.0 mL) were collected from the top, bottom, and middle of the first (week 1), interim (week 13), and last (week 25) pretomanid dose formulations to assess the accuracy of the concentration and/or homogeneity.
Male and female Tg.rasH2 [CByB6F1-Tg(HRAS)2Jic (+/−hemizygous c-Ha-ras)] mice (n = 110/sex) approximately 5 weeks of age were assigned to the main cohort groups to assess carcinogenicity. Male and female wild type CByB6F1 mice [CByB6F1-Tg(HRAS)2Jic (−/−homozygous c-Ha-ras)] (n = 34/sex) approximately 6 weeks of age were assigned to the cohort of mice used to assess the toxicokinetics of pretomanid and its M50 metabolite. […] All mice were obtained from Taconic Biosciences (Germantown, NY). The supplier verified that the mice were murine pathogen-free and females were nulliparous and non-pregnant. At the time of dosing initiation (Day 1), the toxicokinetic mice were approximately 8 weeks of age. On Day 1 of the study, the body weights of the main cohort mice ranged from 19.2 to 25.9 grams (males) and from 15.9 to 20.4 grams (females), and the body weights of the TK cohort mice ranged from 23.4 to 30.2 grams (males) and from 17.6 to 23.5 grams (females).
This study assessed the carcinogenic potential of pretomanid following repeated oral gavage administration once daily for 26 weeks in hemizygous Tg.rasH2 [CByB6F1-Tg(HRAS)2Jic (+/− hemizygous c-Ha-ras)] mice. This study also evaluated the TK profile of pretomanid and metabolite M50 in wild-type CByB6F1 [CByB6F1-Tg(HRAS)2Jic (−/−homozygous c-Ha-ras)] mice. The study was conducted under GLP regulations.
For carcinogenicity assessment (main cohort), 25 mice/sex were included in the vehicle control and pretomanid-treated groups. At the time of dosing initiation (Day 1), the main cohort mice used for assessing carcinogenicity were approximately 7 weeks of age and weighed between 15.9 to 20.4 g (females) and 19.2 to 25.9 g (males). Male groups (Groups 2, 4, and 6) received pretomanid in vehicle at doses of 5, 15, and 40 mg/kg/day, respectively. Female groups (Groups 3, 5, and 7) received pretomanid in vehicle at doses of 10, 30, and 80 mg/kg/day. Positive control mice (n = 10/sex) were included in the main cohort and received three intraperitoneal injections of urethane in saline (1000 mg/kg/injection) on Days 1, 3, and 5. The test and control articles were administered at a dose volume of 10 mL/kg body weight.
Clinical signs, body weights, and food consumption were assessed for the main cohort animals to monitor animal health and any potential toxicity from pretomanid administration. In-life measurements were recorded in Provantis™ Version 9.4.6.3 (Instem, Philadelphia, PA).
All animals, including those in the TK cohort, were observed twice daily for morbidity and mortality. For animals in the main cohort, cage side observations were performed on the day of dosing within 2 hours after the last animal in each group was dosed (Days 1, 3, and 5 for positive control animals).

[1] = female, Tg.rasH2 [CByB6F1-Tg(HRAS)2Jic (+/- hemizygous c-Ha-ras)], mouse, in vivo, po, 10 mg/kg/day
[2] = female, Tg.rasH2 [CByB6F1-Tg(HRAS)2Jic (+/- hemizygous c-Ha-ras)], mouse, in vivo, po, 30 mg/kg/day
[3] = female, Tg.rasH2 [CByB6F1-Tg(HRAS)2Jic (+/- hemizygous c-Ha-ras)], mouse, in vivo, po, 80 mg/kg/day
[4] = female, Tg.rasH2 [CByB6F1-Tg(HRAS)2Jic, hemizygous c-Ha-ras], mouse, in vivo, po, 10 mg/kg/day
[5] = female, Tg.rasH2 [CByB6F1-Tg(HRAS)2Jic, hemizygous c-Ha-ras], mouse, in vivo, po, 30 mg/kg/day
[6] = female, Tg.rasH2 [CByB6F1-Tg(HRAS)2Jic, hemizygous c-Ha-ras], mouse, in vivo, po, 80 mg/kg/day
[7] = male, Tg.rasH2 [CByB6F1-Tg(HRAS)2Jic (+/- hemizygous c-Ha-ras)], mouse, in vivo, po, 5 mg/kg/day
[8] = male, Tg.rasH2 [CByB6F1-Tg(HRAS)2Jic (+/- hemizygous c-Ha-ras)], mouse, in vivo, po, 15 mg/kg/day
[9] = male, Tg.rasH2 [CByB6F1-Tg(HRAS)2Jic (+/- hemizygous c-Ha-ras)], mouse, in vivo, po, 40 mg/kg/day
[10] = male, Tg.rasH2 [CByB6F1-Tg(HRAS)2Jic, hemizygous c-Ha-ras], mouse, in vivo, po, 5 mg/kg/day
[11] = male, Tg.rasH2 [CByB6F1-Tg(HRAS)2Jic, hemizygous c-Ha-ras], mouse, in vivo, po, 15 mg/kg/day
[12] = male, Tg.rasH2 [CByB6F1-Tg(HRAS)2Jic, hemizygous c-Ha-ras], mouse, in vivo, po, 40 mg/kg/day

O=[N+]([O-])c1cn2c(n1)OC[C@@H](OCc1ccc(OC(F)(F)F)cc1)C2 [Pretomanid, (6S)-2-nitro-6-{[4-(trifluoromethoxy)benzyl]oxy}-6,7-dihydro-5H-imidazo[2,1-b][1,3]oxazine]
Early death: cause of death (Group 3F, female, 10 mg/kg/d): Multicentric hemangiosarcoma | Early death: day of death (Group 3F, female, 10 mg/kg/d): 184 | Early death: interpretation (Group 3F, female, 10 mg/kg/d): Natural death | Early death: cause of death (Group 5F, female, 30 mg/kg/d): Caught in feeder | Early death: day of death (Group 5F, female, 30 mg/kg/d): 7 | Early death: interpretation (Group 5F, female, 30 mg/kg/d): Accidental | Early death: interpretation (Group 7F, female, 80 mg/kg/d (two animals)): Natural death | Incidence of lung adenoma, multiple [1]: 0% | Incidence of lung adenoma, single [1]: 0% | Incidence of lung carcinoma [1]: 0% | Incidence of lung tumors, combined [1]: 0% | Incidence of thymus, thymoma [1]: 4% | Incidence of urethra papilloma [1]: 0% | Incidence of Harderian gland carcinoma [2]: 0% | Incidence of lung adenoma, multiple [2]: 0% | Incidence of lung adenoma, single [2]: 4% | Incidence of lung carcinoma [2]: 0% | Incidence of lung tumors, combined [2]: 4% | Incidence of thymus, thymoma [2]: 0% | Incidence of urethra papilloma [2]: 0% | Incidence of Harderian gland carcinoma [3]: 8% | Incidence of lung adenoma, multiple [3]: 0% | Incidence of lung adenoma, single [3]: 0% | Incidence of lung carcinoma [3]: 8% | Incidence of lung tumors, combined [3]: 8% | Incidence of thymus, thymoma [3]: 0% | Incidence of urethra papilloma [3]: 4% | Incidence of Harderian gland adenoma [4]: 0% | Incidence of Harderian gland carcinoma [4]: 4% | Incidence of hemangiosarcoma, combined [4]: 8% | Incidence of hemangiosarcoma, multicentric (includes abdominal skin and thoracic wall) [4]: 4% | Incidence of hemangiosarcoma, spleen [4]: 0% | Incidence of hemangiosarcoma, uterus [4]: 4% | Incidence of hemangiosarcoma, vagina [4]: 0% | Incidence of Harderian gland adenoma [5]: 8% | Incidence of hemangiosarcoma, combined [5]: 4% | Incidence of hemangiosarcoma, multicentric (includes abdominal skin and thoracic wall) [5]: 0% | Incidence of hemangiosarcoma, spleen [5]: 0% | Incidence of hemangiosarcoma, uterus [5]: 0% | Incidence of hemangiosarcoma, vagina [5]: 4% | Incidence of Harderian gland adenoma [6]: 0% | Incidence of hemangiosarcoma, combined [6]: 8% | Incidence of hemangiosarcoma, multicentric (includes abdominal skin and thoracic wall) [6]: 0% | Incidence of hemangiosarcoma, spleen [6]: 8% | Incidence of hemangiosarcoma, uterus [6]: 0% | Incidence of hemangiosarcoma, vagina [6]: 0% | Survival rate (females, high-dose (80 mg/kg/day)): 92% | Survival rate (females, low-dose (10 mg/kg/day)): 96% | Survival rate (females, mid-dose (30 mg/kg/day)): 100% | Incidence of Harderian gland adenoma [7]: 4% | Incidence of Harderian gland carcinoma [7]: 0% | Incidence of hemangiosarcoma, combined [7]: 4% | Incidence of hemangiosarcoma, kidney [7]: 4% | Incidence of hemangiosarcoma, spinal cord, lumbar [7]: 0% | Incidence of hemangiosarcoma, spleen [7]: 0% | Incidence of Harderian gland adenoma [8]: 0% | Incidence of hemangiosarcoma, combined [8]: 0% | Incidence of hemangiosarcoma, kidney [8]: 0% | Incidence of hemangiosarcoma, spinal cord, lumbar [8]: 0% | Incidence of hemangiosarcoma, spleen [8]: 0% | Incidence of Harderian gland adenoma [9]: 0% | Incidence of hemangiosarcoma, combined [9]: 12% | Incidence of hemangiosarcoma, kidney [9]: 0% | Incidence of hemangiosarcoma, spinal cord, lumbar [9]: 0% | Incidence of hemangiosarcoma, spleen [9]: 12% | Incidence of lung adenoma, multiple [10]: 0% | Incidence of lung adenoma, single [10]: 20% | Incidence of lung carcinoma [10]: 0% | Incidence of lung tumors, combined [10]: 20% | Incidence of Harderian gland carcinoma [11]: 0% | Incidence of lung adenoma, multiple [11]: 0% | Incidence of lung adenoma, single [11]: 8% | Incidence of lung carcinoma [11]: 0% | Incidence of lung tumors, combined [11]: 8% | Incidence of Harderian gland carcinoma [12]: 4% | Incidence of lung adenoma, multiple [12]: 0% | Incidence of lung adenoma, single [12]: 4% | Incidence of lung carcinoma [12]: 0% | Incidence of lung tumors, combined [12]: 4% | Survival rate (males, high-dose (40 mg/kg/day)): 100% | Survival rate (males, low-dose (5 mg/kg/day)): 100% | Survival rate (males, mid-dose (15 mg/kg/day)): 100% | Incidence of hemangiosarcoma vs vehicle control (mouse, in vivo): did not significantly increase | Incidence of lung tumors vs vehicle control (mouse, in vivo): did not significantly increase | Incidence of non-vascular and non-pulmonary tumors (mouse, in vivo): did not significantly increase | Non-neoplastic microscopic findings (mouse, in vivo): did not produce non-neoplastic microscopic findings | Mean food consumption from Day 1 to 183 vs vehicle control (mouse, in vivo, 30 mg/kg/day): significantly increased | Clinical signs of toxicity (mouse, in vivo, po): did not produce clinical signs of toxicity | Effect on food consumption (mouse, in vivo, po): did not affect food consumption
